These results are taken from patent publication US20240294545A1 (CSPC Zhongqi Pharmaceutical Technology (Shijiazhuang) Co., …, priority 2020, published 2024).

Marks after values point to notes of the source that are not given here.

One assay concerns the target ATM (Homo sapiens (Human), UniProt Q13315). The assay can be described thus: Caliper mobility shift assay for ATM. The format is biochemical. The note with it: read-out: IC50 of inhibitory activity on ATM kinase. The method, then: 1.2 Determination of the Inhibitory Activities of Compounds on ATM: Caliper Mobility Shift Assay for ATM
To a 96-well plate, 98 μL of DMSO and 2 μL of the 10 mM stock solution were added and mixed evenly so that the concentration of the solution was 200 μM.
Based on the inhibitory rates of the compound at different concentrations, IC50 was calculated according to the formula: Y=Bottom+(Top−Bottom)/(1+(IC50/X)^HillSlope).

Assay [1] relates to subcutaneous xenograft tumor of human non-small cell lung cancer cell line NCI-H441. In words: NCI-H441 subcutaneous xenograft, combined with irinotecan liposome injection. In kind it is in vivo, NU/NU mice. The procedure: 6 Efficacy Test of the Compounds of the Present Disclosure Combined with Irinotecan Liposome Injection on Inhibiting the Growth of Subcutaneous Xenograft Tumor of Human Non-Small Cell Lung Cancer Cell Line NCI-H441
6.1 Experimental Animals: NU/NU Mice, SPF, Female, 20 to 30 g.
Irinotecan liposome injection (HE072), 43 mg:10 mL, milky white liquid, batch No. B37191202, provided by Preparation Research Institute 2 from CSPC Zhongqi Pharmaceutical Technology (Shijiazhuang) Co., Ltd., diluted to an appropriate concentration with 5% glucose injection while testing.
NCI-H441 cells, provided by Nanjing Kebai Biotechnology Co., Ltd.; 1640 culture medium (gibco Company):fetal bovine serum (Lanzhou Bailing)=90%:10%, 37° C., 5% CO2.
NU/NU nude mice were subcutaneously inoculated with NCI-H441 human non-small cell lung cancer cells. When the mean tumor volume reached 170 to 172 mm^3 (15 days after inoculation), the animals were evenly divided into groups according to the tumor volume (d0), with 6 mice in each group. 2.5 mg/kg of HE072 was administered intraperitoneally once a week for 2 times. Vehicle control, 25 mg/kg of A-193, 25 mg/kg of A-182, and 25 mg/kg of AZD1390 were administered intragastrically once a day, from Monday to Thursday every week except Friday to Sunday, for 2 weeks (8 times). The tumor volume was measured twice a week, the body weight of mouse was weighed every day, and the data were recorded. The tumor volume (TV) was calculated according to the formula: TV=½×a×b2, wherein a and b represent the long and short diameters of tumor, respectively. Tumor growth inhibitory rate TGI (%)=[1−(Ti−T0)/(Vi−V0)]×100, wherein Ti represents the mean tumor volume of a given treatment group on a certain day; TO represents the mean tumor volume of this treatment group at the beginning of administration; Vi represents the mean tumor volume of the vehicle control group on a certain day (the same day as that in Ti); V0 represents the mean tumor volume of the vehicle control group at the beginning of administration. At the end of the test (d17), the animals were sacrificed, the tumors were stripped and weighed, and the tumor weight inhibitory rates were calculated.

The subject of assay [2] is intracranial murine glioma GL-261-Luc. The assay can be described thus: Intracranial murine glioma GL-261-Luc model, combined with radiotherapy. In kind it is in vivo, C57BL/6 mice. The procedure: 8 Efficacy Test of the Compounds of the Present Disclosure Combined with Radiotherapy in the Intracranial Murine Glioma GL-261-Luc Model
8.1 Experimental Animals: C57BL/6 Mice, SPF, Female, 19 to 22 g.
GL-261-Luc tumor cells, DMEM medium:fetal bovine serum=90%:10%, accompanied by adding […] L-Glu, 37° C., 5% CO2.
Female C57BL/6 mice were anesthetized with Shutai 50 (60 mg/mL) and thiazine (1.5 mg/mL). Buprenorphine (0.1 mg/kg) was injected subcutaneously 30 min before operation and 6 h after operation to relieve pain. The operation area was disinfected with 70% ethanol solution. A sagittal incision was made on the parietal-occipital bone of anesthetized mice with a sterile scalpel, after cleaning the exposed skull surface with 3% hydrogen peroxide solution, tumor cells were injected. After injection, the skull was cleaned with 3% hydrogen peroxide solution, dried with a sterile dry cotton swab, and the incision was sutured. The state of mice was examined continuously to ensure that mice fully recovered from anesthesia.
The inoculated mice were weighed and intraperitoneally injected with […] (150 mg/kg). After 10 min injection, the animals were anesthetized with a mixture of oxygen and isoflurane. When the animal was completely anesthetized, it was moved into the imaging room for bioluminescence detection. The bioluminescence signal of the whole animal was measured and recorded for the image.
Bioluminescence detection was performed on the second day after operation, and the tumor-bearing mice were randomly divided into groups according to the intensity of bioluminescence. The specific groups were as follows. The administration route was intragastric administration and then JR 1 h after administration.
After grouping, bioluminescence detection was performed 1 to 2 times a week, according to the bioluminescence data, tumor growth inhibitory rate was calculated as follows: TGI (%)=[1−(Ti−T0)/(Vi−V0)]×100, wherein Ti represents the mean bioluminescence data of a given treatment group on a certain day; T0 represents the mean bioluminescence data of this treatment group at the beginning of administration; Vi represents the mean bioluminescence data of the vehicle control group on a certain day (the same day as that in Ti); V0 represents the mean bioluminescence data of the vehicle control group at the beginning of administration.

In assay [3] the test system is subcutaneous xenograft tumor of human glioblastoma LN-18. In words: LN-18 subcutaneous xenograft, combined with radiotherapy. In kind it is in vivo, NOG mice. The note with it: compound 20 mg/kg intragastric qd × 5 + IR 1 Gy, day 17. Put shortly: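 Female NOG mice (18–22 g) bearing subcutaneous LN-18 tumours (1.5*10^7 cells, right costal region) were grouped at 100–150 mm^3; radiotherapy followed compound dosing by 1 h. Caliper volumes twice weekly (0.5×long×short^2); TGI % derived from treated vs control mean volume changes from day 0.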

The target of the next assay is ATR (Homo sapiens (Human), UniProt Q13535). The assay can be described thus: Caliper mobility shift assay for ATR. In kind it is biochemical. The note with it: read-out: IC50 of kinase inhibitory activity, ATR. The procedure:
1.6 Determination of the Inhibitory Activity of Compounds on ATR: Caliper Mobility Shift Assay for ATR
• (1) Preparation of 1× kinase buffer and reaction termination solution • 1) 1× kinase buffer • 50 mM HEPES, pH 7.5 • 0.0015% Brij-35 • […] • 2) Reaction termination solution • 100 mM HEPES, pH 7.5 • 0.015% Brij-35 • 0.2% Coating Reagent #3 • 50 mM EDTA • (2) Preparation of test compound • 1) The compound was dissolved in DMSO to yield a stock solution. Before the assay, to a 96-well plate, 30 μL of a 10 mM stock solution was taken and added with 60 μL of DMSO. […]

A further assay has as its target mTOR (Homo sapiens (Human), UniProt P42345). In words: LanceUltra kinase assay for mTOR. In kind it is biochemical. The note with it: read-out: IC50 of kinase inhibitory activity, mTOR.
A further assay addresses DNA-PK (Homo sapiens (Human), UniProt P78527). In words: ADP-Glo kinase assay for DNA-PK. The note with it: read-out: IC50 of kinase inhibitory activity, DNA-PK. In kind it is biochemical. The method, then: 1.4 Determination of the Inhibitory Activities of Compounds on DNA-PK Kinase: ADP-Glo Kinase Assay
• (1) Preparation of 1× kinase buffer • 40 mM Tris, pH 7.5 • 0.0055% Brij-35 • 20 mM MgCl2 • 0.05 mM DTT • (2) Preparation of test compound • 1) The compound was dissolved in DMSO to yield a stock solution. Before the assay, the stock solution of the compound was diluted with DMSO to yield a 100× solution at a concentration that is 100 times a target concentration for assay. If the target concentration was […], the stock solution should be diluted to yield a 1 mM solution at this step. • 2) 100 μL of DMSO was added, respectively, into two blank wells in the same 96 well plate, corresponding to the total reaction control without compound and the blank control without enzyme. • 3) Preparation of test plate: 50 nL of the compound solution in each of the above wells was taken to a 384-well plate as a test plate. • (3) Kinase reaction • 1) DNA-PK kinase was dissolved in 1× kinase buffer to yield a 2× enzyme solution that is twice the final concentration. 2.5 μL of the 2× enzyme solution was taken to each well of the test plate. The blank control without enzyme was added with 2.5 μL of the 1× kinase buffer instead of the enzyme solution. […]

A further assay concerns the target PI3Kα (p110α/p85α) (Homo sapiens (Human), UniProt P42336). In words: ADP-Glo kinase assay for PI3Kα. The format is biochemical. The note with it: read-out: IC50 of kinase inhibitory activity, PI3K α. The method, then: (§1) 1.3 Determination of the Inhibitory Activities of Compounds on PI3Kα, PI3Kβ, PI3Kγ, and PI3Kδ Kinase: ADP-Glo Kinase Assay
(§2) Experimental procedures • (1) Preparation of 1× kinase buffer • 50 mM HEPES, pH 7.5 • 3 mM MgCl2 • 1 mM EGTA • 100 mM NaCl • 0.03% CHAPS • 2 mM DTT • (2) Preparation of test compound • 1) Dissolution and dilution of compound: • The compound was dissolved in DMSO to yield a stock solution. Before the assay, the stock solution of the compound was diluted with DMSO in a 384-well plate to yield a 100× solution at a concentration that is 100 times a target concentration for assay. • 50 μL of DMSO was added, respectively, into two blank wells in the same 384 well plate, corresponding to the total reaction control without compound and the blank control without enzyme. • 2) Preparation of test plate: 50 nL of the compound solution in each of the above wells was taken to a test plate. • (3) Kinase reaction • 1) PI3Kα, PI3Kβ, PI3Kγ, and PI3Kδ kinases were dissolved, respectively, in 1× kinase buffer to yield a 2× enzyme solution at a concentration that is twice the final concentration. 2.5 µL of the 2× enzyme solution was taken to each well of the test plate. The blank control without enzyme was added with 2.5 μL of the 1× kinase buffer instead of the enzyme solution. […]
In general terms: ADP-Glo first removes unused ATP, then detects ADP through luciferase.

The target in another assay is PI3Kβ (p110β). The assay can be described thus: ADP-Glo kinase assay for PI3Kβ. The note with it: read-out: IC50 of kinase inhibitory activity, PI3K β. The format is biochemical. The procedure: as §1, §2
In another assay the target is PI3Kγ (pp110gamma) (Homo sapiens (Human), UniProt P48736). In words: ADP-Glo kinase assay for PI3Kγ. The note with it: read-out: IC50 of kinase inhibitory activity, PI3K γ. The format is biochemical. The method, then: as §1, §2
For another assay, the target named is PI3Kδ (p110δ/p85δ) (Homo sapiens (Human), UniProt O00329). In words: ADP-Glo kinase assay for PI3Kδ. In kind it is biochemical. The note with it: read-out: IC50 of kinase inhibitory activity, PI3K δ. The method, then:
as §1, §2

[4] abbreviates: compound 25 mg/kg intragastric + irinotecan liposome 2.5 mg/kg ip, day 17.
Setting [5] is: compound 25 mg/kg intragastric + irinotecan liposome 2.5 mg/kg ip, end of test d17.

ATM, sequence (Q13315 whole entry): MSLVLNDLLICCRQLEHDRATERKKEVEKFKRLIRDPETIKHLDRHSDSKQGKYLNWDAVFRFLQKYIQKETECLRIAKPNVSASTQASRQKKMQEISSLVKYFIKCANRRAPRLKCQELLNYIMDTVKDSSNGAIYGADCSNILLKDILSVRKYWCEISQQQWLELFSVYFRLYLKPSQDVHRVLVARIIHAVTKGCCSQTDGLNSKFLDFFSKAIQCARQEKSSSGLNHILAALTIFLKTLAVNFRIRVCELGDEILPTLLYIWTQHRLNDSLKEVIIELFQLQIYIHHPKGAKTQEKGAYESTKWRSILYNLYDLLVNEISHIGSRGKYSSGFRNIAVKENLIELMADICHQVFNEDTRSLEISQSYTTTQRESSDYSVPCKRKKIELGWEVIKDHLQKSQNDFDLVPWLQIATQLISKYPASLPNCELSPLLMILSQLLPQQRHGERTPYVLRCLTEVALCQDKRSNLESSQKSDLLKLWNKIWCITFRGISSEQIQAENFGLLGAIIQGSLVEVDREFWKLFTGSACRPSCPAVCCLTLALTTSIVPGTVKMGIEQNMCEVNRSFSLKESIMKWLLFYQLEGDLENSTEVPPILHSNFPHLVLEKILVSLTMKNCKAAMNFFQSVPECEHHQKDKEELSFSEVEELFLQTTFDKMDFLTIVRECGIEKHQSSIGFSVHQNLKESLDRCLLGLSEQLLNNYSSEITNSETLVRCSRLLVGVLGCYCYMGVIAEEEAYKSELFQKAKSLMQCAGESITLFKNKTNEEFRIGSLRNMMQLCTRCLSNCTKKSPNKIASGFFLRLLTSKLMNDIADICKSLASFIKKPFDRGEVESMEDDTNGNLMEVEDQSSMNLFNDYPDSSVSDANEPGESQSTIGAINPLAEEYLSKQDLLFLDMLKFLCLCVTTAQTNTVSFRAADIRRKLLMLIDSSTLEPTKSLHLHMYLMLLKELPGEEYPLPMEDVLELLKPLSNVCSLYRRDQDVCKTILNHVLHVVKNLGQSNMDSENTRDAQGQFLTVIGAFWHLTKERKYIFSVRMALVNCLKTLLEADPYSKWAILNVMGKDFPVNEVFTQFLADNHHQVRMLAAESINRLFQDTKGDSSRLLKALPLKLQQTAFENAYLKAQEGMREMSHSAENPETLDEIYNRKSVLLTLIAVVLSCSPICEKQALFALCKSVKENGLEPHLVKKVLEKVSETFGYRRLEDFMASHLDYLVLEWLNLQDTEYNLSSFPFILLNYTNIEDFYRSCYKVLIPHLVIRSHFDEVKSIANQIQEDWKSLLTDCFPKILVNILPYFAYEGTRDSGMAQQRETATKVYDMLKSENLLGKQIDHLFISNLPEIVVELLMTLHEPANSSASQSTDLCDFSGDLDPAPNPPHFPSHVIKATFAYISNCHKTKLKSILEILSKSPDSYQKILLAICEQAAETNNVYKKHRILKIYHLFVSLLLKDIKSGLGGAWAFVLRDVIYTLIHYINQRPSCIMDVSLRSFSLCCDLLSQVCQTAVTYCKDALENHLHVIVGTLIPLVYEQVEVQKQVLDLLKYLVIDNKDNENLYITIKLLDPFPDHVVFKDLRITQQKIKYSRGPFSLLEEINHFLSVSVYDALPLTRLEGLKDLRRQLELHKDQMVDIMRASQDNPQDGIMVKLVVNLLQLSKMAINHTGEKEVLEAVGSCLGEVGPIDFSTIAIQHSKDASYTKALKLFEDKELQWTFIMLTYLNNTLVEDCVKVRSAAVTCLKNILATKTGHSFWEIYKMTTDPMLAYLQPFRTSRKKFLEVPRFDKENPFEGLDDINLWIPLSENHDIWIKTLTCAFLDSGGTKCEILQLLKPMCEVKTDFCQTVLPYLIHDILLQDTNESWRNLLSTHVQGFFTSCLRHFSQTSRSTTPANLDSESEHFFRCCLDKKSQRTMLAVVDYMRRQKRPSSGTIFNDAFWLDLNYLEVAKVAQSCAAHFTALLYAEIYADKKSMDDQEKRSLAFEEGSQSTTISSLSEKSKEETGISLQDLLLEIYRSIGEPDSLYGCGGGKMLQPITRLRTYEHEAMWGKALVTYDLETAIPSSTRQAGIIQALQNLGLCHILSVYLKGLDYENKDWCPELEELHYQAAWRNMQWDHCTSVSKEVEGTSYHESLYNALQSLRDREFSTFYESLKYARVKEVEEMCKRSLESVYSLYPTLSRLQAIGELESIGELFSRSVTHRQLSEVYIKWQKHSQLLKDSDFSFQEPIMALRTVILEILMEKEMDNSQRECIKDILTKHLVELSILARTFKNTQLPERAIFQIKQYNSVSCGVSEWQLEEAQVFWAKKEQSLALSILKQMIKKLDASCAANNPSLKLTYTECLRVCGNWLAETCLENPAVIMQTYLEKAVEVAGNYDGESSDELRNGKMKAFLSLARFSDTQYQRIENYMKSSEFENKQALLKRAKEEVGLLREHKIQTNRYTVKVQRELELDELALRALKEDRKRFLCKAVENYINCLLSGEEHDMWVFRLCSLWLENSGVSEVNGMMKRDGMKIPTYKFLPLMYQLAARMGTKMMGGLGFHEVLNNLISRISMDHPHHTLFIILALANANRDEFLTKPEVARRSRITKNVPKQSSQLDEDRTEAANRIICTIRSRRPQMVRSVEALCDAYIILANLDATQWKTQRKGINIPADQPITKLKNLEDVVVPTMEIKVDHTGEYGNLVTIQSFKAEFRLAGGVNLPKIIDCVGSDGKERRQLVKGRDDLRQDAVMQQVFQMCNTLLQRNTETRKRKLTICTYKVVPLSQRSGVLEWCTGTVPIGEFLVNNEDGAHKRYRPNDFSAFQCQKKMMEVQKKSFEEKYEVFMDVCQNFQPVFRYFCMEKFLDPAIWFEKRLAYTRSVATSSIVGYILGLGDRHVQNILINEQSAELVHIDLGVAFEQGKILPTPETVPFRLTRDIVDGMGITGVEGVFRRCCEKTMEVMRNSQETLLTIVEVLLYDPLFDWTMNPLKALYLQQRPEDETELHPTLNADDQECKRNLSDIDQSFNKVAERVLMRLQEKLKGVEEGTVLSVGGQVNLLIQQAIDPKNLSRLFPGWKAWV
mTOR, sequence (P42345 1362-2549): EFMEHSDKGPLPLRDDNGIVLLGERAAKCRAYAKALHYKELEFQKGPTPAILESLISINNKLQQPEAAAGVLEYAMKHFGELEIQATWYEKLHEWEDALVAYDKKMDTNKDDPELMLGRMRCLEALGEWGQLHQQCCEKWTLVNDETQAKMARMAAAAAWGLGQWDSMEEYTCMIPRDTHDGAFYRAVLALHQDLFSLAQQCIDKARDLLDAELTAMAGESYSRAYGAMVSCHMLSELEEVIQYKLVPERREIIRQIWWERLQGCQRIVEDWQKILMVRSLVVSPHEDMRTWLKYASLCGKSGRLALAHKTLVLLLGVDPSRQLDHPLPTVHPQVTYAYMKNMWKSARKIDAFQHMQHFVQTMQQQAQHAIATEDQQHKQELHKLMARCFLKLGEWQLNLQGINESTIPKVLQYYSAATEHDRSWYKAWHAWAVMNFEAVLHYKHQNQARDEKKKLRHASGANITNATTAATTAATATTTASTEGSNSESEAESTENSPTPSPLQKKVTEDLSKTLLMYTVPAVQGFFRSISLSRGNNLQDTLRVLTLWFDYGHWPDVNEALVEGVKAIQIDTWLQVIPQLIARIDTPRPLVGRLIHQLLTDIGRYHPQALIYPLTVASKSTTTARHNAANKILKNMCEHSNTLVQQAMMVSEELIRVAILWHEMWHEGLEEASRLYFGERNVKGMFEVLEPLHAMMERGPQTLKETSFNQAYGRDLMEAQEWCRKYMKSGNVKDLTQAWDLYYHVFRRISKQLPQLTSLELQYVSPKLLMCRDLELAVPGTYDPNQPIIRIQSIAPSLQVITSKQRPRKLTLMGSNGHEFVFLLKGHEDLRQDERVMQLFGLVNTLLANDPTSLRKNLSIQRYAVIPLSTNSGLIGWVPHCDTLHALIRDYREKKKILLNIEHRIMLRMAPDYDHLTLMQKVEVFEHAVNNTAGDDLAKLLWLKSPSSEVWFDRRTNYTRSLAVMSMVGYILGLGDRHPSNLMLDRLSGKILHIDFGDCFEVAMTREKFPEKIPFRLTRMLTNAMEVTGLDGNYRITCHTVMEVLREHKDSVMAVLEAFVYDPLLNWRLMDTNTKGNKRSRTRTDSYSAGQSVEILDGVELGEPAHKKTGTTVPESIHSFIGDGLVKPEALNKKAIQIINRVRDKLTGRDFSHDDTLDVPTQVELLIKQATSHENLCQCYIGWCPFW

A word on the IC50: it is the concentration that gives 50% inhibition. For the compound `C[C@@H]1COc2c(-c3ccc(OCCCN4CCCCC4)nc3)ccc3ncc4c(c23)n1c(=O)n4C` [Example A-182, (R)-2,10-dimethyl-7-(6-(3-(piperidin-1-yl)propoxy)pyridin-3-yl)-9,10-dihydro-8-oxa-2,4,10a-triazanaphtho[2,1,8-cde]azulen-1(2H)-one], the IC50 on ATM came to 0.46 nM. In assay [1] (combined with irinotecan liposome injection, compared with AZD1390), the “inhibitory effect on tumor volume and tumor weight, in words” value is “higher than those of AZD1390”. In addition, in [1] (setting [4]), the “D 17 TGI” value is reported as 75.1% and the “D 17 TV (MEAN ± SD)” value is on record as 278.5 ± 94.1***^## mm^3. In addition, in assay [1] (setting [5]), the Tumor weight amounted to 0.26 ± 0.07 g and the “Tumor weight inhibitory rate” value is reported as 56.1%. In assay [2] (combined with radiotherapy, compared with AZD1390), the “anti-tumor activity, in words” value is listed as “equivalent to that of AZD1390”. In addition, in assay [2] (compound 10 mg/kg intragastric qd × 5 + IR 2 Gy, day 17), the “D17 BLI” value is recorded as 5.24*** LOG10. Further, in assay [2] (compound 10 mg/kg intragastric qd × 5 + IR 2 Gy, day 17, from bioluminescence), the “D 17 TGI” value came out at 110.08%. Further, in assay [3], the “D 17 TGI” value worked out at 85.5% and the “D 17 TV (MEAN ± SD)” value was 271 ± 107***^# mm^3.
Consider `CC[C@@H]1COc2c(-c3ccc(OCCCN4CCCCC4)nc3)c(F)cc3ncc4c(c23)n1c(=O)n4C` [Example A-22, (R)-10-ethyl-6-fluoro-2-methyl-7-(6-(3-(piperidin-1-yl)propoxy)pyridin-3-yl)-9,10-dihydro-8-oxa-2,4,10a-triazanaphtho[2,1,8-cde]azulen-1(2H)-one], for which the IC50 on ATM was 0.52 nM; at ATR, greater than 10000 nM; at mTOR, 1280 nM; on DNA-PK, 852 nM; on PI3Kα (p110α/p85α), 6280 nM; at PI3Kβ (p110β), greater than 10000 nM. The IC50 on PI3Kγ (pp110gamma) and on PI3Kδ (p110δ/p85δ) was greater than 10000 nM each time.
